Reference: ChEMBL document CHEMBL5291721, “A preclinical secondary pharmacology resource illuminates target-adverse drug reaction associations of marketed drugs” (Nat Commun, 2023)

Experiments:
Progesterone receptor = target: T1, Progesterone receptor (Homo sapiens, UniProt P06401)
T1 sequence (P06401 whole entry): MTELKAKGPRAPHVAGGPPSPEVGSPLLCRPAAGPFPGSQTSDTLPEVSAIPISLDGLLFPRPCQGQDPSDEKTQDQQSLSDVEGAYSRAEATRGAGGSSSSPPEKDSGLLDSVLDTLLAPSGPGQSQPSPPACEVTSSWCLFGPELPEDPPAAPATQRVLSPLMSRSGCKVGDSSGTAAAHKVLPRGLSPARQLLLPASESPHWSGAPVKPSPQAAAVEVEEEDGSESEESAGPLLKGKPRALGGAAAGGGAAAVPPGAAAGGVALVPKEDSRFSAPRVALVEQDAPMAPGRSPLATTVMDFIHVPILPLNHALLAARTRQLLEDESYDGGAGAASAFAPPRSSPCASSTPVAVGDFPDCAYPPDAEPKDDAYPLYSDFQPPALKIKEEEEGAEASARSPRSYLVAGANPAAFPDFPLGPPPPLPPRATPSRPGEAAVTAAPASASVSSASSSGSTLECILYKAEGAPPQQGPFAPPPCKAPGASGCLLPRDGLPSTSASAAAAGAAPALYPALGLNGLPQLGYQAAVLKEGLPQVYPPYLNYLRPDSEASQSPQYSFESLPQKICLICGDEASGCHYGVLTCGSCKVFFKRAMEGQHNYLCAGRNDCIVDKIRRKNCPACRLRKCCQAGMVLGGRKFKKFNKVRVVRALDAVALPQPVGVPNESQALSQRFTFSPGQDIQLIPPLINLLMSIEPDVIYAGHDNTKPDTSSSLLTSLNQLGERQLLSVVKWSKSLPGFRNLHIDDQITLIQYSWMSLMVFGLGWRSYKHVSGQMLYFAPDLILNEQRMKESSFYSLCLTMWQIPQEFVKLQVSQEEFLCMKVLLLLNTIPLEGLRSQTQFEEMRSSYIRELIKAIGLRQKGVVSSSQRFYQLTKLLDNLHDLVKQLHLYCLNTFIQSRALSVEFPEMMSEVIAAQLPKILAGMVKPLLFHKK

[1] = target: 5-hydroxytryptamine receptor 2A (Homo sapiens, UniProt P28223)
Sequence of 5-hydroxytryptamine receptor 2A (P28223 whole entry): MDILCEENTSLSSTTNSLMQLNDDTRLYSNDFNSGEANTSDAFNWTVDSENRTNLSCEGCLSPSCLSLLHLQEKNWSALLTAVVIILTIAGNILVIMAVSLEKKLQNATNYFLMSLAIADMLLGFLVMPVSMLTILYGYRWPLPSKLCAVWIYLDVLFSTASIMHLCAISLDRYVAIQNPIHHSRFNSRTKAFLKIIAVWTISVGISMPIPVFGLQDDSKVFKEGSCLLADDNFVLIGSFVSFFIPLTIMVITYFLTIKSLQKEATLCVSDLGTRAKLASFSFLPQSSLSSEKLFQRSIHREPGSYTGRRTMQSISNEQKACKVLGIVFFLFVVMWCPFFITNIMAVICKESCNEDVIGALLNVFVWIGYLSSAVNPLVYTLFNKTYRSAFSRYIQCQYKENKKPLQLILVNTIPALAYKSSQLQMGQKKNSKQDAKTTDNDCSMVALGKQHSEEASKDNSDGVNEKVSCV

[2] = target: T2, Neuropeptide Y receptor type 2 (Homo sapiens, UniProt P49146)
T2 sequence (P49146 whole entry): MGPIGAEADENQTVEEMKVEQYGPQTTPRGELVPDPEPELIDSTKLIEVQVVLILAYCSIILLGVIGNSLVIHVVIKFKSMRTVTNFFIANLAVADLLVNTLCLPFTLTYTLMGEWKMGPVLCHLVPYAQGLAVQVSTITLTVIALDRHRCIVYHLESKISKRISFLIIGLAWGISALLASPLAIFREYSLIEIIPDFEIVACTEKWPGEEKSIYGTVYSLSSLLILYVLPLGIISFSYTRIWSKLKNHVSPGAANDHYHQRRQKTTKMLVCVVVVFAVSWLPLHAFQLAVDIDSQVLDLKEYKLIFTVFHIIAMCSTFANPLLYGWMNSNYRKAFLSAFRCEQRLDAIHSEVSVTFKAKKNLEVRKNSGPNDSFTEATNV

[3] = target: 5-hydroxytryptamine receptor 2B (Homo sapiens, UniProt P41595)
Sequence of 5-hydroxytryptamine receptor 2B (P41595 whole entry): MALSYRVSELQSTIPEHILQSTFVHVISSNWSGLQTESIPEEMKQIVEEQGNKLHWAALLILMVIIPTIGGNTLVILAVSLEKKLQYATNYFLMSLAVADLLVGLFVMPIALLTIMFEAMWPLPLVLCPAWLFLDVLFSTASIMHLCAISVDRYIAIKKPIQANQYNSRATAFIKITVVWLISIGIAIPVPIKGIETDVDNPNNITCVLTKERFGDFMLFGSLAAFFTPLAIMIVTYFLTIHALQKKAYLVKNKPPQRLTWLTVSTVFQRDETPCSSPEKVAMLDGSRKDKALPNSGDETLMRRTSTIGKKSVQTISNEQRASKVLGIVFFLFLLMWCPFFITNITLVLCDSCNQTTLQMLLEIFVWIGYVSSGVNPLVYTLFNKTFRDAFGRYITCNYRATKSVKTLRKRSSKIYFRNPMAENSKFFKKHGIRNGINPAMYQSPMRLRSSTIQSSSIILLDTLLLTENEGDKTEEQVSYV

[4] = target: T3, Corticotropin-releasing factor receptor 1 (Homo sapiens, UniProt P34998)
T3 sequence (P34998 whole entry): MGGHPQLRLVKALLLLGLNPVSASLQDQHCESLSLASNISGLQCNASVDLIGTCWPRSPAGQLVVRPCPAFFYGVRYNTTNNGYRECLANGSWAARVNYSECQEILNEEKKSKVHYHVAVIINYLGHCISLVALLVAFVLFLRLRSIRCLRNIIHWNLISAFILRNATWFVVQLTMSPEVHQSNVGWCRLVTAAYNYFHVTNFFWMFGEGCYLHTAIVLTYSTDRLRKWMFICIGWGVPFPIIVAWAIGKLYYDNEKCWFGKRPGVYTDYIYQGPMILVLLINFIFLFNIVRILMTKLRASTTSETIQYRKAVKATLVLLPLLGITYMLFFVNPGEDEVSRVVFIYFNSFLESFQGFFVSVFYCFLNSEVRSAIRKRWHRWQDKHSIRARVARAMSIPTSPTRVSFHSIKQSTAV

[5] = target: Neurotensin receptor type 1 (Homo sapiens, UniProt P30989)
Sequence of Neurotensin receptor type 1 (P30989 whole entry): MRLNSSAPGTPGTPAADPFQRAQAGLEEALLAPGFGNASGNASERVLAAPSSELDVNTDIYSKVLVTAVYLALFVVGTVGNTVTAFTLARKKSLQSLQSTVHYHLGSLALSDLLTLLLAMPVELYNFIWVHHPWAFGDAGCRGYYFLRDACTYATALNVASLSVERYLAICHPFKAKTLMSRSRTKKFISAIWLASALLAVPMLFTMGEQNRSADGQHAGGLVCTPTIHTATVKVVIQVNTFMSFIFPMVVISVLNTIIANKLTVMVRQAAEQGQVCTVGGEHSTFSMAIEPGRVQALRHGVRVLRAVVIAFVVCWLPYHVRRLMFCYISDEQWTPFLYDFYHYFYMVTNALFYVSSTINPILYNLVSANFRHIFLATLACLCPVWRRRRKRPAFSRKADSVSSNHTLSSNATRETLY

[6] = target: T4, Gastric inhibitory polypeptide receptor (Homo sapiens, UniProt P48546)
T4 sequence (P48546 whole entry): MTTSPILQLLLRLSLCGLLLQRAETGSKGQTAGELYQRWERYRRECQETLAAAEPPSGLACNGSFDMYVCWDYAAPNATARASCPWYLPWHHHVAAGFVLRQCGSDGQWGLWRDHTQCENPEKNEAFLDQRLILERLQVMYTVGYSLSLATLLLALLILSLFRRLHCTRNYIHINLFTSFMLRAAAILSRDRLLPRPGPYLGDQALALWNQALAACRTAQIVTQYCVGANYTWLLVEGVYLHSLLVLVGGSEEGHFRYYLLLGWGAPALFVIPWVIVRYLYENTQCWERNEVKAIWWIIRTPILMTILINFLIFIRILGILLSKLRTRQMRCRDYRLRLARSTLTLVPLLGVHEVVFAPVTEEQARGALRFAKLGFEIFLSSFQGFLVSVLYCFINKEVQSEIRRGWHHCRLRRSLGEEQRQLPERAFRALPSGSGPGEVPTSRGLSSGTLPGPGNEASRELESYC
Note: assay procedure not described here.

Row | SMILES | AC50 (Progesterone receptor) [µM] | AC50 [1] [µM] | AC50 [2] [µM] | AC50 [3] [µM] | AC50 [4] [µM] | AC50 [5] [µM] | AC50 [6] [µM]
1 | CN1CC(=O)N2[C@H](c3ccc4c(c3)OCO4)c3[nH]c4ccccc4c3C[C@@H]2C1=O | > 30 | > 10 |  |  |  |  | 
2 | COc1ccc2cccc(CCNC(C)=O)c2c1 [AGOMELATINE] | > 30 |  | > 30 | 0.879 | > 30 | > 30 | > 30
3 | CN1CCc2cccc3c2[C@H]1Cc1ccc(O)c(O)c1-3 [APOMORPHINE] | 26 | 0.964 | > 30 | 1.27 | > 30 | > 30 | > 30
4 | CC(C)c1c(C(=O)Nc2ccccc2)c(-c2ccccc2)c(-c2ccc(F)cc2)n1CC[C@@H](O)C[C@@H](O)CC(=O)O [ATORVASTATIN] | > 30 |  | > 30 |  | > 30 | > 30 | > 30
5 | NC(CO)C(=O)NNCc1ccc(O)c(O)c1O (stereo not given) [BENSERAZIDE] | > 30 | > 10 | > 30 | > 10 | > 30 | > 30 | > 30
6 | CN(C)C(=O)OC1N=C(c2ccccc2)c2cc(Cl)ccc2N(C)C1=O (stereo not given) [CAMAZEPAM] | > 30 | > 10 | > 30 | > 10 | > 30 | > 30 | > 30
7 | CCOc1cc(N)c([N+](=O)[O-])cc1C(=O)NC1CCN(CC2CC=CCC2)CC1 (stereo not given) [CINITAPRIDE] |  | 0.009 |  | 0.0023 |  |  | 
8 | CCCCCCCCCCCC[N+](C)(C)CCOc1ccccc1 [DOMIPHEN] |  | 0.14 |  |  |  |  | 
9 | CN[C@@H](C)[C@H](O)c1ccccc1 [EPHEDRINE] | > 30 |  | > 30 | > 10 | > 30 | > 30 | > 30
10 | C#CC1(OC(N)=O)CCCCC1 [ETHINAMATE] |  | > 10 |  |  |  |  | 
11 | CCNC(C)Cc1cccc(C(F)(F)F)c1 (stereo not given) [FENFLURAMINE] | > 30 |  | > 30 |  | > 30 | > 30 | > 30
12 | CCCCCN(C)CCC(O)(P(=O)(O)O)P(=O)(O)O [IBANDRONIC ACID] | > 30 | > 10 | > 30 | > 10 | > 30 | > 30 | > 30
13 | CCN1CCC[C@H]1CNC(=O)c1cc(S(N)(=O)=O)ccc1OC [LEVOSULPIRIDE] | > 30 |  |  |  |  |  | 
14 | Cc1cc(-c2ccccc2)nnc1NCCN1CCOCC1 [MINAPRINE] | > 30 | > 10 | > 30 | 1.4 | > 30 | > 30 | > 30
15 | NC(=O)C[S+]([O-])C(c1ccccc1)c1ccccc1 (stereo not given) [MODAFINIL] | > 30 |  | > 30 | > 10 | > 30 | > 30 | > 30
16 | CCCCCCCCOc1ccccc1C(=O)Nc1ccc(C(=O)OCC[N+](C)(CC)CC)cc1 [OTILONIUM BROMIDE] |  |  |  | 0.712 |  |  | 
17 | O=C(O)CCCc1ccccc1 [PHENYLBUTANOIC ACID] | > 30 | > 10 | > 30 | > 10 | > 30 | > 30 | > 30
18 | CC(Cc1ccccc1)NCCC(c1ccccc1)c1ccccc1 (stereo not given) [PRENYLAMINE] | > 30 | 3.38 |  |  |  |  | 
19 | CCN(CC)CCOC(=O)c1ccc(N)cc1 [PROCAINE] | > 30 |  |  |  |  |  | 
20 | C1COC(NC(C2CC2)C2CC2)=N1 [RILMENIDINE] | > 30 | > 10 |  |  |  |  | 
21 | O=C1NCCN1CCN1CCC(c2cn(-c3ccc(F)cc3)c3ccc(Cl)cc23)CC1 [SERTINDOLE] |  |  |  | 0.012 |  |  | 
22 | Cc1c(C(=O)Nc2ccc(N3C[C@@H](C)O[C@@H](C)C3)nc2)cccc1-c1ccc(OC(F)(F)F)cc1 [SONIDEGIB] | 19.7 | > 10 | > 30 | > 10 | > 30 | > 30 | > 30
23 | Cc1ccc(-c2nc3ccc(C)cn3c2CC(=O)N(C)C)cc1 [ZOLPIDEM] | > 30 | > 10 | > 30 | > 10 | > 30 | > 30 | > 30
24 | CN1CCN(C(=O)OC2c3nccnc3C(=O)N2c2ccc(Cl)cn2)CC1 (stereo not given) [ZOPICLONE] | > 30 | > 10 | > 30 | > 10 | > 30 | > 30 | > 30
